Experimental data as given in ChEMBL document CHEMBL3745704, “Novel nonsecosteroidal VDR ligands with phenyl-pyrrolyl pentane skeleton for cancer therapy” (Eur J Med Chem, 2016).

Legend:
[1] = Antipoliferative activity against human PC3 cells after 48 hrs by MTT assay; format: functional, cell-based; details: PC-3, 48 h
[2] = tested on: MCF7; assay: Antipoliferative activity against human MCF7 cells after 48 hrs by MTT assay; format: functional, cell-based; details: MCF7, 48 h
[3] = Antipoliferative activity against human Caco2 cells after 48 hrs by MTT assay; format: functional, cell-based; details: Caco-2, 48 h
[4] = tested on: HepG2; assay: Antipoliferative activity against human HepG2 cells after 48 hrs by MTT assay; format: functional, cell-based; details: HepG2, 48 h
[5] = Cytotoxicity against human L02 cells after 48 hrs by MTT assay; format: cell-based; details: L02, 48 h
[6] = molecular target: T1, Vitamin D3 receptor (Homo sapiens, UniProt P11473); assay: Binding affinity to vitamin D3 receptor (unknown origin) after 4 hrs using fluormone VDR red by polar screen VDR competitor assay
T1 sequence (P11473 whole entry): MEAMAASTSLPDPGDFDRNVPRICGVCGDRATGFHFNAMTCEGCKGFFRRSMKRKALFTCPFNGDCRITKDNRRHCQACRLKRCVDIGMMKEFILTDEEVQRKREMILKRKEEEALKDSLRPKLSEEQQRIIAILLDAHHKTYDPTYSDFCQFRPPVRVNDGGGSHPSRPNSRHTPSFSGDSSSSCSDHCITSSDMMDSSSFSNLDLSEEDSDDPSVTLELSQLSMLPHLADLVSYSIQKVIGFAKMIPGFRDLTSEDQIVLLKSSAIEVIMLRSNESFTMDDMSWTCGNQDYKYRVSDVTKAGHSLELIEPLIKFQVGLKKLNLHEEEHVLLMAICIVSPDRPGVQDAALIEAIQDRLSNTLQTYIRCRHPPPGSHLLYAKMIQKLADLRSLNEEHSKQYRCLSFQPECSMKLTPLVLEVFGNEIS

[7] = tested on: Rattus norvegicus; assay: Toxicity in rat assessed as hypercalcemic activity at 30 mg/kg/day administered for 7 days; format: organism-based; details: in vivo, 168 h
[8] = tested on: Rattus norvegicus; assay: Toxicity in rat assessed as serum calcium level at 0.5 ug/kg/day administered for 7 days (reference value: 7.25 mg/dl); format: organism-based; details: in vivo, 0.0005 mg/kg, 168 h
[9] = tested on: Rattus norvegicus; assay: Toxicity in rat assessed as hypercalcemic activity at 10 mg/kg/day administered for 7 days; format: organism-based; details: in vivo, 168 h
[10] = tested on: Rattus norvegicus; assay: Toxicity in rat assessed as hypercalcemic activity at 0.5 mg/kg/day administered for 7 days; format: organism-based; details: in vivo, 168 h

Structure (SMILES) | IC50 [2] | IC50 [4] | IC50 [6] | IC50 [1] | IC50 [3] | IC50 [5] | Activity [7] | Activity [8] | Activity [9] | Activity [10]
C#CC(C)OC(=O)c1ccc(C(CC)(CC)c2ccc(OCC(O)C(C)(C)C)c(C)c2)n1CC (configuration not stated) | > 50000 nM | > 50000 nM |  | 38200 nM | > 50000 nM | 23700 nM |  |  |  | 
CC[C@@H](C)[C@H](NC(=O)c1ccc(C(CC)(CC)c2ccc(OCC(O)C(C)(C)C)c(C)c2)n1CC)C(=O)O (some centres not stated) | 2000 nM | 127 nM | 389 nM | 1900 nM | 3400 nM | 1400 nM |  |  |  | 
CCC(CC)(c1ccc(OCC(=O)C(C)(C)C)c(C)c1)c1ccc(OCC(=O)C(C)(C)C)c(C)c1 | 7800 nM | > 50000 nM |  | > 50000 nM | 16900 nM | 5100 nM | Non-toxic |  |  | 
CCN(CC)CCNC(=O)c1ccc(C(CC)(CC)c2ccc(OCC(O)C(C)(C)C)c(C)c2)n1CC (configuration not stated) | 690 nM | 490 nM |  | 220 nM | 2310 nM | 2500 nM |  |  |  | 
CCn1c(C(=O)Oc2ccc(CCO)cc2)ccc1C(CC)(CC)c1ccc(OCC(O)C(C)(C)C)c(C)c1 (configuration not stated) | > 50000 nM | > 50000 nM |  | 6300 nM | > 50000 nM | 22700 nM |  |  |  | 
CCn1c(C(=O)N(CCC#N)CCC#N)ccc1C(CC)(CC)c1ccc(OCC(O)C(C)(C)C)c(C)c1 (configuration not stated) | 480 nM | 42000 nM | > 10000 nM | 7800 nM | 7100 nM | 1700 nM |  |  |  | 
CCOC(=O)CN(C)C(=O)c1ccc(C(CC)(CC)c2ccc(OCC(O)C(C)(C)C)c(C)c2)n1CC (configuration not stated) | 9200 nM | > 50000 nM |  | 25500 nM | 12200 nM | 10100 nM |  |  |  | 
CCOc1ccc(NC(=O)c2ccc(C(CC)(CC)c3ccc(OCC(O)C(C)(C)C)c(C)c3)n2CC)cc1 (configuration not stated) |  |  | 9250 nM |  |  |  |  |  |  | 
CCn1c(C(=O)N[C@@H](C)CO)ccc1C(CC)(CC)c1ccc(OCC(O)C(C)(C)C)c(C)c1 (some centres not stated) | 2800 nM | 47600 nM |  | 17500 nM | > 50000 nM | 17300 nM | Non-toxic |  |  | 
C=CCN(C)C(=O)c1ccc(C(CC)(CC)c2ccc(OCC(O)C(C)(C)C)c(C)c2)n1CC (configuration not stated) | > 50000 nM | > 50000 nM |  | 25900 nM | > 50000 nM | 6300 nM |  |  |  | 
CCn1c(C(=O)NCC(OC)OC)ccc1C(CC)(CC)c1ccc(OCC(O)C(C)(C)C)c(C)c1 (configuration not stated) | > 50000 nM | 23200 nM | 5230 nM | 14600 nM | > 50000 nM | 22200 nM |  |  |  | 
C=C1/C(=C\C=C2/CCC[C@]3(C)[C@@H]([C@H](C)CCCC(C)(C)O)CC[C@@H]23)C[C@@H](O)C[C@@H]1O [CALCITRIOL] |  |  |  |  |  |  |  | 13.11 mg/dL |  | 
CCn1c(C(=O)OCc2ccc(F)cc2)ccc1C(CC)(CC)c1ccc(OCC(O)C(C)(C)C)c(C)c1 (configuration not stated) | > 50000 nM | > 50000 nM |  | > 50000 nM | > 50000 nM | 14900 nM |  |  |  | 
CCn1c(C(=O)NCCCN2CCOCC2)ccc1C(CC)(CC)c1ccc(OCC(O)C(C)(C)C)c(C)c1 (configuration not stated) | 2070 nM | 1290 nM | 1190 nM | 7.9 nM | 5900 nM | 810 nM | Non-toxic |  | Non-toxic | Non-toxic
CCN(CC)CCCNC(=O)c1ccc(C(CC)(CC)c2ccc(OCC(O)C(C)(C)C)c(C)c2)n1CC (configuration not stated) | 190 nM | 1100 nM | 71.1 nM | 2500 nM | 1800 nM | 2500 nM |  |  |  | 
CCn1c(C(=O)N(C)CC(=O)O)ccc1C(CC)(CC)c1ccc(OCC(O)C(C)(C)C)c(C)c1 (configuration not stated) | 25400 nM | 17000 nM |  | 23900 nM | 31900 nM | 32600 nM |  |  |  | 
C#CCNC(=O)c1ccc(C(CC)(CC)c2ccc(OCC(O)C(C)(C)C)c(C)c2)n1CC (configuration not stated) | > 50000 nM | > 50000 nM | > 10000 nM | 16200 nM | 39100 nM | 4400 nM |  |  |  | 
CCn1c(C(=O)N(C)CCC#N)ccc1C(CC)(CC)c1ccc(OCC(O)C(C)(C)C)c(C)c1 (configuration not stated) | > 50000 nM | > 50000 nM |  | 1700 nM | > 50000 nM | 14900 nM |  |  |  | 

Further lines, with some results ahead:

IC50 [2] | IC50 [4] | IC50 [6] | Structure (SMILES) | IC50 [1] | IC50 [3] | IC50 [5] | Activity [7] | Activity [8] | Activity [9] | Activity [10]
28600 nM | 25200 nM |  | CCn1c(C(=O)N(C)CC(=O)O)ccc1C(CC)(CC)c1ccc(OCC(=O)C(C)(C)C)c(C)c1 | 18400 nM | 35900 nM | 8700 nM |  |  |  | 
160 nM | 247 nM | 564 nM | CC[C@@H](C)[C@H](NC(=O)c1ccc(C(CC)(CC)c2ccc(OCC(=O)C(C)(C)C)c(C)c2)n1CC)C(=O)O | 1600 nM | 4500 nM | 1500 nM |  |  |  | 
75 nM | 180 nM | 1010 nM | CCn1c(C(=O)NCCN)ccc1C(CC)(CC)c1ccc(OCC(=O)C(C)(C)C)c(C)c1 | 480 nM | 1900 nM | 2500 nM |  |  |  | 
660 nM | 870 nM |  | CCn1c(C(=O)NCCN(C)C)ccc1C(CC)(CC)c1ccc(OCC(O)C(C)(C)C)c(C)c1 (configuration not stated) | 1630 nM | 1300 nM | 2600 nM |  |  |  | 
340 nM | 960 nM |  | CCn1c(C(=O)NCCCN(C)C)ccc1C(CC)(CC)c1ccc(OCC(=O)C(C)(C)C)c(C)c1 | 1600 nM | 1400 nM | 670 nM |  |  |  | 
5200 nM | 1600 nM | 3520 nM | CCn1c(C(=O)NCCCN2CCOCC2)ccc1C(CC)(CC)c1ccc(OCC(=O)C(C)(C)C)c(C)c1 | 11 nM | 3600 nM | 310 nM |  |  |  | 
520 nM | 2300 nM |  | CCn1c(C(=O)NCCN(C)C)ccc1C(CC)(CC)c1ccc(OCC(=O)C(C)(C)C)c(C)c1 | 2300 nM | 1600 nM | 2500 nM |  |  |  | 
5.9 nM | 176 nM | 194 nM | CCn1c(C(=O)NCCN)ccc1C(CC)(CC)c1ccc(OCC(O)C(C)(C)C)c(C)c1 (configuration not stated) | 940 nM | 1000 nM | 2400 nM | Non-toxic |  | Non-toxic | Non-toxic
490 nM | 360 nM | 197 nM | CCn1c(C(=O)NCCCN(C)C)ccc1C(CC)(CC)c1ccc(OCC(O)C(C)(C)C)c(C)c1 (configuration not stated) | 3100 nM | 1900 nM | 470 nM |  |  |  | 
690 nM | 620 nM |  | CCN(CC)CCNC(=O)c1ccc(C(CC)(CC)c2ccc(OCC(=O)C(C)(C)C)c(C)c2)n1CC | 30 nM | 1600 nM | 2500 nM |  |  |  | 
530 nM | 180 nM | 863 nM | CCN(CC)CCCNC(=O)c1ccc(C(CC)(CC)c2ccc(OCC(=O)C(C)(C)C)c(C)c2)n1CC | 1800 nM | 1000 nM | 2300 nM |  |  |  | 
